Data reported in patent US20250179049A1, “SALTS OF HETEROCYCLIC INHIBITORS OF MONOCARBOXYLATE TRANSPORTER 4 FOR THE TREATMENT OF DISEASE” (Vettore, LLC, priority 2022, published 2025).
Where two headings read alike, the source gives them in different places.

Key:
[1] = Rat pharmacokinetics, oral gavage; type: in vivo, Sprague-Dawley rats; design: AUClast/D: unit not given here; settings: for MRT inf: read-out: MRTInf—obs; for Tmax: read-out: Tmax
Experimental: Groups, Dosing, and Collection. […] Three rats per group were perorally administered 20, 60, or 200 mg Compound 1 free acid or 25, 75, or 250 mg in 0.5% methylcellulose in Saline for a final concentration of 2, 6, or 20 mg/mL Compound 1 free acid or 2.5, 7.5, or […]. Plasma was collected at 5 min, 15 min, 30 min, 1 hour, 2 hour, 4 hour, 6 hour, 8 hour, and 24 hour post dose via jugular vein.
Stock and Dose Prep. Stock solutions were prepared by dissolving 2.47 mg of Compound 1 (free acid) in 2.470 mL DMSO with vortexing to obtain 1 mg/mL solution of Compound 1 (free acid), or 2.09 mg of Compound 1 (Tris salt) in […] DMSO with vortexing to obtain 1 mg/mL solution of Compound 1 (Tris salt). Dosing solutions were prepared by vortexing/sonicating the following solids in solvent:
LC MS-MS Analysis. Liquid Chromatography with tandem mass spectrometry was used to determine plasma concentrations of Compound 1 Free Acid and Compound 1 Tris Salt in plasma samples collected at prescribed time points.
Appropriate serial concentrations of working solutions were achieved by diluting stock solution of analyte with 50% acetonitrile in water solution. Five μL of working solutions (10, 20, 50, 100, 500, 1000, 5000, 8000, 10000 ng/mL) were added to 50 μL of the blank male SD Rat plasma to achieve calibration standards of 1˜1000 ng/ml (1, 2, 5, 10, 50, 100, 500, 800, 1000 ng/mL) in a total volume of 55 μL. Five quality control (QC) samples at 2 ng/mL, 5 ng/mL, 10 ng/mL, 50 ng/mL and 800 ng/mL for plasma were prepared independently of those used for the calibration curves. These QC samples were prepared on the day of analysis in the same way as calibration standards. 55 μL standards, 55 μL QC samples and 55 μL unknown samples (50 μL plasma/blood with 5 μL blank solution) were added to 200 μL of methanol containing internal standard (dexamethasone) mixture for precipitating protein respectively, and vortexed for 30 seconds. After centrifugation at 4° C. and 4000 rpm for 15 minutes. The supernatant was diluted with water with a ratio of 1:2. 2 μL of the supernatant was injected into the LC/MS/MS system for quantitative analysis.
Instrumentation included HALO 90A C18 2.7 μm 2.1×50 mm HPLC column, a Prominence degasser DGU-20A5R(C), liquid chromatograph Shimadzu LC-30AD with communications bus module CBM-20A and Auto SIL-20AC HT; and an AB Sciex Triple Quad 5500 LC/MS/MS instrument.

in vivo = assay: in vivo; design: species or system beagle dogs; settings: both sexes, beagle, dog
Experimental: Compound 1 was administered to beagle dogs by oral gavage in a range finding study at doses of 30, 79, 240, or 790 mg/kg. […] Compound 1 was administered at doses of 10, 50, and 150 mg/kg/day in the pivotal repeat dose toxicity studies for 28 days.
Compound 1 tris salt was evaluated for safety in 7- and 28-day studies in rats and dogs. […] The NOAELs for this rat study were 120 mg/kg/day for males and 75 mg/kg/day for females. […] The NOAEL determined in the 28-day dog GLP study was 150 mg/kg/day. These correspond to human equivalent doses (HEDs) of: • Rat: 75 mg/kg×0.16=12 mg/kg • Dog: 150 mg/kg×0.54=81 mg/kg

[2] = Sprague-Dawley, plasma, rat PO 20 mg/kg, female, mean
[3] = Sprague-Dawley, plasma, rat PO 20 mg/kg, male, mean
[4] = Sprague-Dawley, plasma, rat PO 60 mg/kg, female, mean
[5] = Sprague-Dawley, plasma, rat PO 60 mg/kg, male, mean
[6] = Sprague-Dawley, plasma, rat PO 200 mg/kg, female, mean
[7] = Sprague-Dawley, plasma, rat PO 200 mg/kg, male, mean

CC(C)(OCc1cc(-c2cccc(OC3CCC3)c2)n(-c2ccccc2N2CCC2)n1)C(=O)O [Compound 1, 2-((1-(2-(azetidin-1-yl)phenyl)-5-(3-cyclobutoxyphenyl)-1H-pyrazol-3-yl)methoxy)-2-methylpropanoic acid]
AUC(0-inf) [1, 2]: 991 µg·h/mL
half-life [1, 2]: 7 h
MRT inf [1, 2]: 10 h
AUC(0-inf) [1, 3]: 168 µg·h/mL
half-life [1, 3]: 3.27 h
MRT inf [1, 3]: 4.54 h
AUC(0-inf) [1, 4]: 1770 µg·h/mL
half-life [1, 4]: 9.1 h
MRT inf [1, 4]: 13.6 h
AUC(0-inf) [1, 5]: 447 µg·h/mL
half-life [1, 5]: 2.92 h
MRT inf [1, 5]: 5.33 h
AUC(0-inf) [1, 6]: 3820 µg·h/mL
half-life [1, 6]: 10.4 h
MRT inf [1, 6]: 15.9 h
AUC(0-inf) [1, 7]: 1110 µg·h/mL
half-life [1, 7]: 3.14 h
MRT inf [1, 7]: 6.01 h
AUC(0-t) ([1]; female, Sprague-Dawley, rat, plasma, po, 20 mg/kg, rat PO 20 mg/kg, female, mean, read-out: AUClast): 885 µg·h/mL
Cmax ([1]; female, Sprague-Dawley, rat, plasma, po, 20 mg/kg, rat PO 20 mg/kg, female, mean, read-out: Cmax): 78.9 µg/mL
Tmax ([1]; female, Sprague-Dawley, rat, plasma, po, 20 mg/kg, rat PO 20 mg/kg, female, mean): 2.67 h
AUC(0-t) ([1]; female, Sprague-Dawley, rat, plasma, po, 20 mg/kg, rat, Female, PO/20 mg/kg, Mean ± SD, read-out: AUC0-24): 885 µg·h/mL
Cmax ([1]; female, Sprague-Dawley, rat, plasma, po, 20 mg/kg, rat, Female, PO/20 mg/kg, Mean ± SD, read-out: Cmax): 78.8 µg/mL
AUC(0-t) ([1]; female, Sprague-Dawley, rat, plasma, po, 60 mg/kg, rat PO 60 mg/kg, female, mean, read-out: AUClast): 1430 µg·h/mL
Cmax ([1]; female, Sprague-Dawley, rat, plasma, po, 60 mg/kg, rat PO 60 mg/kg, female, mean, read-out: Cmax): 113 µg/mL
Tmax ([1]; female, Sprague-Dawley, rat, plasma, po, 60 mg/kg, rat PO 60 mg/kg, female, mean): 4.67 h
AUC(0-t) ([1]; female, Sprague-Dawley, rat, plasma, po, 60 mg/kg, rat, Female, PO/60 mg/kg, Mean ± SD, read-out: AUC0-24): 1430 µg·h/mL
Cmax ([1]; female, Sprague-Dawley, rat, plasma, po, 60 mg/kg, rat, Female, PO/60 mg/kg, Mean ± SD, read-out: Cmax): 113 µg/mL
Tmax ([1]; female, Sprague-Dawley, rat, plasma, po, 60 mg/kg, rat, Female, PO/60 mg/kg, Mean ± SD): 4.7 ± 2.3 h
AUC(0-t) ([1]; female, Sprague-Dawley, rat, plasma, po, 200 mg/kg, rat PO 200 mg/kg, female, mean, read-out: AUClast): 2850 µg·h/mL
Cmax ([1]; female, Sprague-Dawley, rat, plasma, po, 200 mg/kg, rat PO 200 mg/kg, female, mean, read-out: Cmax): 206 µg/mL
Tmax ([1]; female, Sprague-Dawley, rat, plasma, po, 200 mg/kg, rat PO 200 mg/kg, female, mean): 4.67 h
AUC(0-t) ([1]; female, Sprague-Dawley, rat, plasma, po, 200 mg/kg, rat, Female, PO/200 mg/kg, Mean ± SD, read-out: AUC0-24): 2850 µg·h/mL
Cmax ([1]; female, Sprague-Dawley, rat, plasma, po, 200 mg/kg, rat, Female, PO/200 mg/kg, Mean ± SD, read-out: Cmax): 206 µg/mL
Tmax ([1]; female, Sprague-Dawley, rat, plasma, po, 200 mg/kg, rat, Female, PO/200 mg/kg, Mean ± SD): 4.7 ± 1.1 h
AUC(0-t) ([1]; male, Sprague-Dawley, rat, plasma, po, 20 mg/kg, rat PO 20 mg/kg, male, mean, read-out: AUClast): 167 µg·h/mL
Cmax ([1]; male, Sprague-Dawley, rat, plasma, po, 20 mg/kg, rat PO 20 mg/kg, male, mean, read-out: Cmax): 30.6 µg/mL
Tmax ([1]; male, Sprague-Dawley, rat, plasma, po, 20 mg/kg, rat PO 20 mg/kg, male, mean): 1 h
AUC(0-t) ([1]; male, Sprague-Dawley, rat, plasma, po, 20 mg/kg, rat, Male, PO/20 mg/kg, Mean ± SD, read-out: AUC0-24): 167 µg·h/mL
Cmax ([1]; male, Sprague-Dawley, rat, plasma, po, 20 mg/kg, rat, Male, PO/20 mg/kg, Mean ± SD, read-out: Cmax): 30.6 µg/mL
Tmax ([1]; male, Sprague-Dawley, rat, plasma, po, 20 mg/kg, rat, Male, PO/20 mg/kg, Mean ± SD): 1 h
AUC(0-t) ([1]; male, Sprague-Dawley, rat, plasma, po, 60 mg/kg, rat PO 60 mg/kg, male, mean, read-out: AUClast): 445 µg·h/mL
Cmax ([1]; male, Sprague-Dawley, rat, plasma, po, 60 mg/kg, rat PO 60 mg/kg, male, mean, read-out: Cmax): 56.5 µg/mL
Tmax ([1]; male, Sprague-Dawley, rat, plasma, po, 60 mg/kg, rat PO 60 mg/kg, male, mean): 2.67 h
AUC(0-t) ([1]; male, Sprague-Dawley, rat, plasma, po, 60 mg/kg, rat, Male, PO/60 mg/kg, Mean ± SD, read-out: AUC0-24): 445 µg·h/mL
Cmax ([1]; male, Sprague-Dawley, rat, plasma, po, 60 mg/kg, rat, Male, PO/60 mg/kg, Mean ± SD, read-out: Cmax): 56.5 µg/mL
Tmax ([1]; male, Sprague-Dawley, rat, plasma, po, 60 mg/kg, rat, Male, PO/60 mg/kg, Mean ± SD): 2.7 ± 1.2 h
AUC(0-t) ([1]; male, Sprague-Dawley, rat, plasma, po, 200 mg/kg, rat PO 200 mg/kg, male, mean, read-out: AUClast): 1100 µg·h/mL
Cmax ([1]; male, Sprague-Dawley, rat, plasma, po, 200 mg/kg, rat PO 200 mg/kg, male, mean, read-out: Cmax): 115 µg/mL
Tmax ([1]; male, Sprague-Dawley, rat, plasma, po, 200 mg/kg, rat PO 200 mg/kg, male, mean): 4 h
AUC(0-t) ([1]; male, Sprague-Dawley, rat, plasma, po, 200 mg/kg, rat, Male, PO/200 mg/kg, Mean ± SD, read-out: AUC0-24): 1100 µg·h/mL
Cmax ([1]; male, Sprague-Dawley, rat, plasma, po, 200 mg/kg, rat, Male, PO/200 mg/kg, Mean ± SD, read-out: Cmax): 115 µg/mL
Tmax ([1]; male, Sprague-Dawley, rat, plasma, po, 200 mg/kg, rat, Male, PO/200 mg/kg, Mean ± SD): 4 ± 2 h
AUClast/D ([1]; rat PO 20 mg/kg, female, mean): 44231
AUC—% Extrap—obs ([1]; rat PO 20 mg/kg, female, mean): 9.9%
Cmax ([1]; rat PO 20 mg/kg, female, mean, listed as Free Acid, 20 mg/kg): 78.833 µg/mL
AUC—% Extrap—obs ([1]; rat PO 20 mg/kg, male, mean): 0.61%
AUClast/D ([1]; rat PO 60 mg/kg, female, mean): 23759
AUC—% Extrap—obs ([1]; rat PO 60 mg/kg, female, mean): 16.7%
AUClast/D ([1]; rat PO 60 mg/kg, male, mean): 7419
AUC—% Extrap—obs ([1]; rat PO 60 mg/kg, male, mean): 0.477%
AUClast/D ([1]; rat PO 200 mg/kg, female, mean): 14265
AUC—% Extrap—obs ([1]; rat PO 200 mg/kg, female, mean): 22.1%
AUClast/D ([1]; rat PO 200 mg/kg, male, mean): 5525
AUC—% Extrap—obs ([1]; rat PO 200 mg/kg, male, mean): 0.704%
Clinical symptoms ([1]; rats, single oral gavage dose): No abnormal clinical symptoms were observed
NOAEL at 28 days (in vivo): 150 mg/kg/day
